Experimental data reported in ChEMBL document CHEMBL1201862, “PubChem BioAssay data set” (2004).
Active and inactive are the calls of the source.

How the values were obtained:
[1] = molecular target: Peroxisome proliferator-activated receptor gamma/Nuclear receptor coactivator 1 (Homo sapiens, UniProt P37231); type: functional;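 further: agonist potency as compounds enhance coactivator SRC-1 recruitment to PPARgamma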
[2] = molecular target: Peroxisome proliferator-activated receptor gamma/Nuclear receptor coactivator 2 (Homo sapiens, UniProt P37231); type: functional;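 further: agonist potency for raising coactivator recruitment to the receptor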
[3] = molecular target: Peroxisome proliferator-activated receptor gamma/Nuclear receptor coactivator 3 (Homo sapiens, UniProt P37231); type: functional;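 further: agonist potency for raising coactivator recruitment to the receptor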
NADPH oxidase 1 = molecular target: T1, NADPH oxidase 1 (Homo sapiens, UniProt Q9Y5S8); type: functional, cell-based;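 further: Cell-based assay with luminescence read-out, IC50 derived from inhibitor dose-response curves; intracellular ROS from endogenous NOX1 in intact HT29 colon cancer cells; potency of inhibitors that lower the ROS luminescence signal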
T1 sequence (Q9Y5S8 whole entry): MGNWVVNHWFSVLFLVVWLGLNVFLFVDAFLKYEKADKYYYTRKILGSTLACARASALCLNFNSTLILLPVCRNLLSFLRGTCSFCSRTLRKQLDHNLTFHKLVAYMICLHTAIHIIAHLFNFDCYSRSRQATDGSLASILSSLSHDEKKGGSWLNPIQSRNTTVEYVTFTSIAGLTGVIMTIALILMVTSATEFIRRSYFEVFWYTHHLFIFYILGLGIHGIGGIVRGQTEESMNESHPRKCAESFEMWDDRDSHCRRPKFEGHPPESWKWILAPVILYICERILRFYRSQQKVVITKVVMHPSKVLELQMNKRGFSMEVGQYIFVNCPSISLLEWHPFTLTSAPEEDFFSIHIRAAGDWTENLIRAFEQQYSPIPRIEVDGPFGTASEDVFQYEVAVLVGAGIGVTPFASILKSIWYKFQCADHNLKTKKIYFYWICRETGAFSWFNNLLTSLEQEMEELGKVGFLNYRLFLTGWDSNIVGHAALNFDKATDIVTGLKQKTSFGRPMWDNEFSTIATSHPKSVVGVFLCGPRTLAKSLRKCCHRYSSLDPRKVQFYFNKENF

Leucine aminopeptidase = molecular target: T2, Leucine aminopeptidase (Plasmodium falciparum 3D7, UniProt Q8IL11); test: P. falciparum M17LAP inhibitors, primary screen, biochemical, fluorogenic H-Leu-NHMec substrate, 1536-well (AID 1619); type: functional
T2 sequence (Q8IL11 whole entry): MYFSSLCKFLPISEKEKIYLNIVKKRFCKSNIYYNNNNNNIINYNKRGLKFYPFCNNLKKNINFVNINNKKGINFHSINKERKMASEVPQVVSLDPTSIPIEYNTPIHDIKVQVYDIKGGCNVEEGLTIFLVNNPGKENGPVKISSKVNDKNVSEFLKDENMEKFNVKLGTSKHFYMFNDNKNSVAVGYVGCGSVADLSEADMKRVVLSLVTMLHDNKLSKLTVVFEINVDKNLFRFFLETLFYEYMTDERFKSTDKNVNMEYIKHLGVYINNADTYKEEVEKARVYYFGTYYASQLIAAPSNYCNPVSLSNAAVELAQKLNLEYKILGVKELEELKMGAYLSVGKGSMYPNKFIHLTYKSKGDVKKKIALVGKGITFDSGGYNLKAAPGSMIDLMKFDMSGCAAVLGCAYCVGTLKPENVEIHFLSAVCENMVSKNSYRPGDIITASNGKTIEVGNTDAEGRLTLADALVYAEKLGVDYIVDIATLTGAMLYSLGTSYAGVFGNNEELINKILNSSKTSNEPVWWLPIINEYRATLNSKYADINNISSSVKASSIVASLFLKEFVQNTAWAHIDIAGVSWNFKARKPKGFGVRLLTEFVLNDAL

[4] = molecular target: T3, Replicative DNA helicase DnaB (Mycobacterium tuberculosis, UniProt P9WMR3); test: DnaB intein splicing inhibitors, dose response, biochemical, cell-free fluorescence (AID 449749); type: functional
T3 sequence (P9WMR3 whole entry): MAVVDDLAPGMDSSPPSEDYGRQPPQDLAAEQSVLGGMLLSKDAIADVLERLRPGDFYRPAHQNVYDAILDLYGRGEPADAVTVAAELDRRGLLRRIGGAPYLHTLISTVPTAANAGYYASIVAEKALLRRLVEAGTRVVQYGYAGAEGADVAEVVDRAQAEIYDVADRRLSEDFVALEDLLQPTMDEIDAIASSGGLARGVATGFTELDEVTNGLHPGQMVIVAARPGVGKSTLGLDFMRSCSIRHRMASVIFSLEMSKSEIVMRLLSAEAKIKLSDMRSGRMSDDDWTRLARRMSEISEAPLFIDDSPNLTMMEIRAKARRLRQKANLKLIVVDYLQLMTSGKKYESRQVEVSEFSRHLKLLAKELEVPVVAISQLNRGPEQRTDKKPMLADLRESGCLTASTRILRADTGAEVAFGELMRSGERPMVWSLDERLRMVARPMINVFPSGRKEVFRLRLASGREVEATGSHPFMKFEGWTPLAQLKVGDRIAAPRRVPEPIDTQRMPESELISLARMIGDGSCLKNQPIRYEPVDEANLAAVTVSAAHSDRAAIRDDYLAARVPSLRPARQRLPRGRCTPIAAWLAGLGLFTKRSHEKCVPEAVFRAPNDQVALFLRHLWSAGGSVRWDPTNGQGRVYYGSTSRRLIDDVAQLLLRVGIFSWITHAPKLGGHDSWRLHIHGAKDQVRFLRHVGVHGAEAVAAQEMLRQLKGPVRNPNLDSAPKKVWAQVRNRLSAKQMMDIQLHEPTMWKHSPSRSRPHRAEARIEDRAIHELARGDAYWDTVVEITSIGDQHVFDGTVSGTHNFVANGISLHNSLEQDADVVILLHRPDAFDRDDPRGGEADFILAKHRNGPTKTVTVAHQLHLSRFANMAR

Kallikrein-7 = Kallikrein-7 (Homo sapiens, UniProt P49862); test: Fluorescence Intensity-based biochemical primary high throughput dose response assay to identify activators of kallikrein-7 (K7) zymogen.
Protein RecA = molecular target: T4, Protein RecA (Mycobacterium tuberculosis, UniProt P9WHJ3); test: Fluorescence Cell-Free Homogeneous Dose Retest to Identify Inhibitors of RecA-Intein Splicing Activity. [Related pubchem assays (depositor defined):AID2097, AID2223, AID489010, AID492950]; type: functional
T4 sequence (P9WHJ3 whole entry): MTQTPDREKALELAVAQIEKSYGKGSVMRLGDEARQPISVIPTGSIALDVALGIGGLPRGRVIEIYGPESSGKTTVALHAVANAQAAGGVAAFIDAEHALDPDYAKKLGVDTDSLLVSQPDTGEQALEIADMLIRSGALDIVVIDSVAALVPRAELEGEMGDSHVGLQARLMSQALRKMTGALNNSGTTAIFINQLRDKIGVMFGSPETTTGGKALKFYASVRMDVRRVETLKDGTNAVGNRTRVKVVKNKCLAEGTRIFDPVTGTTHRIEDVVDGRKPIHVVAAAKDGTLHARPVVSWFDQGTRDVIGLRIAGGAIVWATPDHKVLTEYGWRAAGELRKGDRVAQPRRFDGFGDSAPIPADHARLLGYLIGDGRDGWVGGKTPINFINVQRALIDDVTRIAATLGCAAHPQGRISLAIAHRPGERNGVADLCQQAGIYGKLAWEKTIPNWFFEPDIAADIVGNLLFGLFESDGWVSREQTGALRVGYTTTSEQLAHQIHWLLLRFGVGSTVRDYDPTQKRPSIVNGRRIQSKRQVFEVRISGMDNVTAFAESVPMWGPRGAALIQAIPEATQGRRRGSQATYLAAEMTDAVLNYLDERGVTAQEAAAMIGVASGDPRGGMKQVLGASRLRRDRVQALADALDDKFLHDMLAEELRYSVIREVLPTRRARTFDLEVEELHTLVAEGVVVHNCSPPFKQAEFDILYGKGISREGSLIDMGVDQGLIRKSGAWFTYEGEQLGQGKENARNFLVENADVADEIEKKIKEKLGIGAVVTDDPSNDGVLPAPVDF

Cytochrome P450 2C19 = Cytochrome P450 2C19 (Homo sapiens, UniProt P33261); test: Cytochrome panel assay with activity outcomes. Panel member name: p450-cyp2c19 Compounds with AC50 equal or less than 10 uM are considered active; type: functional; settings: read-out: AC50
[5] = Luminescence Cell-Based Dose Confirmation to Identify Activators of 5'UTR Stem-Loop Driven Alpha-Synuclein mRNA Translation in H4 Neuroglioblastoma Cells. [Related pubchem assays: 1829 (Project Summary), 1814 (Primary HTS)]; type: functional
[6] = Luminescence Cell-Based Dose Response to Identify Activators of Luciferase Translation or Activity in H4-C Neuroglioblastoma Cells. [Related pubchem assays: 1829 (Project Summary), 1814 (Primary HTS)]; type: functional
[7] = Luminescence Cell-Based Dose Response HTS to Identify Activators of Luciferase Translation or Activity in H4 […] Cells. [Related pubchem assays: 1829 (Project Summary), 1814 (Primary HTS)]; type: functional
[8] = Luminescence Cell-Based Dose Response to Identify Activators of 5'UTR Stem-Loop Driven Prion Protein mRNA Translation in H4-C Neuroglioblastoma Cells. [Related pubchem assays: 1829 (Project Summary), 1814 (Primary HTS)]; type: functional
[9] = Luminescence Cell-Based Dose Confirmation HTS to Identify Activators of 5'UTR Stem-Loop Driven Alpha-Synuclein mRNA Translation in H4 Neuroglioblastoma Cells. [Related pubchem assays: 1829 (Project Summary), 1814 (Primary HTS)]; type: functional
H4 = test: Luminescence Cell-Based Dose Response HTS to Identify Activators of 5'UTR Stem-Loop Driven Prion Protein mRNA Translation in H4 Neuroglioblastoma Cells. [Related pubchem assays: 1829 (Project Summary), 1814 (Primary HTS)]; type: functional; settings: Homo sapiens
[10] = HIV-1 Vif–A3G interaction blockers – biochemical, TR-FRET, GST-Vif 1-94, biotin-A3G peptide, dose response retest, primary screen (AID 1117319); type: functional;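 further: TR-FRET signal of purified GST-Vif binding a biotinylated A3G peptide; inhibitors lower the FRET signal by blocking Vif and A3G binding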
[11] = viability inhibitors of stage V gametocytes – luminescence, dose response (AID 1117278); type: functional, cell-based;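 further: gametocytes exposed to compound for 24 hours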
[12] = viability loss in human Jurkat cells – cell-based, luminescence, cytotoxicity control for P. falciparum gametocyte viability project, dose response (AID 1117277); type: functional;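 further: potency reflects loss of cellular ATP meaning fewer viable cells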
[13] = Luminescence Cell-Based Dose Response HTS to Identify Inhibitors of 5'UTR Stem-Loop Driven Prion Protein mRNA Translation in H4 Neuroglioblastoma Cells. [Related pubchem assays: 1827 (Project Summary), 1813 (Primary HTS)]; type: functional
[14] = luciferase reporter signal suppression in cells – H4 neuroglioma cells, luminescence, dose response (AID 1990); type: functional, cell-based
[15] = alpha-synuclein stem-loop luciferase translation blockers – H4 neuroglioma cells, luminescence, confirmation (AID 1988); type: functional, cell-based
[16] = viability of uninfected HEp-2 cells – cell-based, HTS, cytotoxicity control for RSV inhibitor project, dose response (AID 2410); type: functional; settings: human respiratory syncytial virus
[17] = Dd2 malaria parasite growth inhibition potency – SYBR Green, dry powder samples, dose response (AID 1159566); type: functional, cell-based;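 further: potency for growth inhibition with lower SYBR green DNA signal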
[18] = P. falciparum Dd2 growth inhibitors, dose response, SYBR Green, cherry-picked samples (AID 1159567); type: functional, cell-based
[19] = growth inhibition of yeast DHODH-expressing 3D7 parasites – SYBR Green, dry powder samples, dose response (AID 1159570); type: functional, cell-based;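 further: parasite growth measured after 72 hours of compound exposure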
[20] = growth inhibition of PfATP4-mutant resistant parasites – NITD609-resistant line, SYBR Green, dry powder, dose response (AID 1159571); type: functional, cell-based;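 further: parasites synchronized at ring stage by sorbitol before testing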

Chain of Peroxisome proliferator-activated receptor gamma/Nuclear receptor coactivator 2 (P37231 whole entry): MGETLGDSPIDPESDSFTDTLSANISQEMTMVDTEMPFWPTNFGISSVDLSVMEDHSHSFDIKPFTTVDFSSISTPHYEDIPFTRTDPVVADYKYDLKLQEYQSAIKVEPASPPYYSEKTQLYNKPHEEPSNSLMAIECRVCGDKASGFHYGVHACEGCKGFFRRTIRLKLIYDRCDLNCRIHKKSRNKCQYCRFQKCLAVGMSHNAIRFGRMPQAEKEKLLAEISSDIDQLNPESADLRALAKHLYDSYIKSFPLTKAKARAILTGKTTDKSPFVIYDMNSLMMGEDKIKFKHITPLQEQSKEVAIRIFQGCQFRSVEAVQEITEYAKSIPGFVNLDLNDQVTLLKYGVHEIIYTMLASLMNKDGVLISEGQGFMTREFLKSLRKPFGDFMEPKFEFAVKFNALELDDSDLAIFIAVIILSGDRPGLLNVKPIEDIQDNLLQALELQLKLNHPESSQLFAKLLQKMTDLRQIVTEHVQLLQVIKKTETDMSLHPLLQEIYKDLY
Chain of Peroxisome proliferator-activated receptor gamma/Nuclear receptor coactivator 2 (Q15596 whole entry, further chain): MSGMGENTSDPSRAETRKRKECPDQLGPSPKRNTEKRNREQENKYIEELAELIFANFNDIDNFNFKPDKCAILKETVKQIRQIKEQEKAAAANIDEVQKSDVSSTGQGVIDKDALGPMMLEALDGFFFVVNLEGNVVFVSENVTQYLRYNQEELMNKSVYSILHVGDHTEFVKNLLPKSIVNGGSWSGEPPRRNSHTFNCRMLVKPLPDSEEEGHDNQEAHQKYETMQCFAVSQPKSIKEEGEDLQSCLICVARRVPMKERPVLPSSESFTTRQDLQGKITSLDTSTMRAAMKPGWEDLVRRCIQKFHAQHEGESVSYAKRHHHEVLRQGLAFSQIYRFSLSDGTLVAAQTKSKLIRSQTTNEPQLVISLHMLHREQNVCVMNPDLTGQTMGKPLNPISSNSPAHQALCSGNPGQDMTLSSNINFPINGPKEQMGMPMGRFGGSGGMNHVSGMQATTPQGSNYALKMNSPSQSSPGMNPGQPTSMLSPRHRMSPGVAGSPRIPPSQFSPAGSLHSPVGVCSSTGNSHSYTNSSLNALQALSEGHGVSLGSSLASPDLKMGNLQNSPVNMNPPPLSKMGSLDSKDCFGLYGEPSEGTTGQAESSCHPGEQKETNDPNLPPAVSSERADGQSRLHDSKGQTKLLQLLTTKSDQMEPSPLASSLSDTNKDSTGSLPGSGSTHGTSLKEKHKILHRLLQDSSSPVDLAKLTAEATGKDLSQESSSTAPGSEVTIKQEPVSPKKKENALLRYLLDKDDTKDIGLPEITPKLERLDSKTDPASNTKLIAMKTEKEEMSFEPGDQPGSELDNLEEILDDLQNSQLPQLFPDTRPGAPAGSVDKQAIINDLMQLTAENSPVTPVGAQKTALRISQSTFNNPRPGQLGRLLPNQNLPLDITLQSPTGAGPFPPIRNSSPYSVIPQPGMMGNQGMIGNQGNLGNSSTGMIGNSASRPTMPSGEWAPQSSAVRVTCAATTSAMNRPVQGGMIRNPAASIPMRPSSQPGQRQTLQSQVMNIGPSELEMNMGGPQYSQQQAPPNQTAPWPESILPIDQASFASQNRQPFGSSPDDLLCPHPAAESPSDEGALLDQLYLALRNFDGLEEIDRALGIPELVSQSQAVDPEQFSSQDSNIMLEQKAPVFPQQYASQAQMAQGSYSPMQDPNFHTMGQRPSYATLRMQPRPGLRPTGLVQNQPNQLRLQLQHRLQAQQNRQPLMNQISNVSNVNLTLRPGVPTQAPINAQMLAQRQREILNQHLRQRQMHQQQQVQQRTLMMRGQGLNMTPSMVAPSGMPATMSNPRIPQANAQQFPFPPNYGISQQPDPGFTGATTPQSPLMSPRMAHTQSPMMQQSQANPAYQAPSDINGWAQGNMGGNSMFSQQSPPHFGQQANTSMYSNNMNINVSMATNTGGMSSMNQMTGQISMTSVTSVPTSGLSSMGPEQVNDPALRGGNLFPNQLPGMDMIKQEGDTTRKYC
Chain of Peroxisome proliferator-activated receptor gamma/Nuclear receptor coactivator 1 (P37231 whole entry): as the sequence (P37231 whole entry) above
Chain of Peroxisome proliferator-activated receptor gamma/Nuclear receptor coactivator 1 (Q15788 whole entry, further chain): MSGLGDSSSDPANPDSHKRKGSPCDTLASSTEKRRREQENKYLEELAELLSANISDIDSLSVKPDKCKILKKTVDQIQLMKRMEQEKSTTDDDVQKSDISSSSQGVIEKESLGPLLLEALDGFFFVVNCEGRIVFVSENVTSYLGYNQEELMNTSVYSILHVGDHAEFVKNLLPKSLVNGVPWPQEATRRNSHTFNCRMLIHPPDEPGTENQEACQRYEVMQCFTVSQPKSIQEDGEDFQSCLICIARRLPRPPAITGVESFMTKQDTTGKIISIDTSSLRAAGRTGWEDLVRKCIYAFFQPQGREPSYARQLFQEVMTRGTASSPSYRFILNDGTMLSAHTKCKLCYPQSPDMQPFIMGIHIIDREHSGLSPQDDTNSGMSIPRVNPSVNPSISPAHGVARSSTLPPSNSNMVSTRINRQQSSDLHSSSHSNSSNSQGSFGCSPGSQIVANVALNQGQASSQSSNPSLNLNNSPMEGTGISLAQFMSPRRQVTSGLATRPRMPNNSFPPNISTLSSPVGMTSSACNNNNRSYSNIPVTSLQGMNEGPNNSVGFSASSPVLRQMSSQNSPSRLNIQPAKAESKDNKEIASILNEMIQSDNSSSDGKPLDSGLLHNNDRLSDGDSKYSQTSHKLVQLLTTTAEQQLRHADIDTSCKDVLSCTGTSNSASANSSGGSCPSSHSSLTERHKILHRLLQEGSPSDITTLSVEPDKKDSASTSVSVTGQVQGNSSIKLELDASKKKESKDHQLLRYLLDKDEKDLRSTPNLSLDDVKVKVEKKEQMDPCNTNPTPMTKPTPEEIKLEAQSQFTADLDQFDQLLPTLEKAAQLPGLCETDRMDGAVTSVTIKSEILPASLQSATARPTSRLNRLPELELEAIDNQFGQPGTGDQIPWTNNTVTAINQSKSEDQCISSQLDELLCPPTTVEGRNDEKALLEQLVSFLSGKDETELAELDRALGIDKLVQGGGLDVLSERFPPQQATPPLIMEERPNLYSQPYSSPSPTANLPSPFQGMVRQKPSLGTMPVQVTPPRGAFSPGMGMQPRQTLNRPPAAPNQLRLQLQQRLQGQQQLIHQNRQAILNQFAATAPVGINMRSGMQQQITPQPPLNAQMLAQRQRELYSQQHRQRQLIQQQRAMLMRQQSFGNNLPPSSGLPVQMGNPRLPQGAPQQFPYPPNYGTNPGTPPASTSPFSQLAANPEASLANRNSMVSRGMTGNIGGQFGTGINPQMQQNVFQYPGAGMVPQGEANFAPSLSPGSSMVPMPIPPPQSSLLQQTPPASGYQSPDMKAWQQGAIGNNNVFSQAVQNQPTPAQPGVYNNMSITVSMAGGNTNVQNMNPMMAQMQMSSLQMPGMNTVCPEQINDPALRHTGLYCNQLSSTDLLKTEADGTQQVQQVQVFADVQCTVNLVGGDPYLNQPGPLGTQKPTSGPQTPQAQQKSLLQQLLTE
Chain of Kallikrein-7 (P49862 whole entry): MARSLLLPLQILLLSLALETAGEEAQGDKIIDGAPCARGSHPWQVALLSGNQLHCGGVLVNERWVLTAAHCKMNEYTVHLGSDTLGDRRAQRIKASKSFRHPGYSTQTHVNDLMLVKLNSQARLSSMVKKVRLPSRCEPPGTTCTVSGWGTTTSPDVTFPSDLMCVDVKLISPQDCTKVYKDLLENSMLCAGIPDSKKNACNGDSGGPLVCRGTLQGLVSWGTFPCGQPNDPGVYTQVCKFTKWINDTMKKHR
Chain of Cytochrome P450 2C19 (P33261 whole entry): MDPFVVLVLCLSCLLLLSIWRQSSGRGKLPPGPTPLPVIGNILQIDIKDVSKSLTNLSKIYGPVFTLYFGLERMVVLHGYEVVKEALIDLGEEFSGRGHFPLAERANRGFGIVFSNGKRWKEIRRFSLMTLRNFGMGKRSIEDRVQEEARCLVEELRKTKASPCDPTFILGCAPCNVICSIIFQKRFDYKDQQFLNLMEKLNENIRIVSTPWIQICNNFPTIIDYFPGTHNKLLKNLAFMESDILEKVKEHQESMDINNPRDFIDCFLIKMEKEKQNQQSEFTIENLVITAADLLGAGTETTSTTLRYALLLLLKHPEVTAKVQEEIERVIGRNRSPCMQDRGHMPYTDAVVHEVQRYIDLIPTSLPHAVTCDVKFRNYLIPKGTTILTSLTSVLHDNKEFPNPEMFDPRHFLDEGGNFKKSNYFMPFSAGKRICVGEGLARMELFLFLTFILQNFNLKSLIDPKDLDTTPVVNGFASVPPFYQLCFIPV

CCOC(=O)c1c(NC(=O)C(C)Sc2cn(C)c3ccccc23)sc2c1CCC2 (stereo unspecified)
EC50 [1]: 29.2 µM (not active) | EC50 [2]: 29.5 µM (not active) | EC50 [3]: 32.3 µM (not active)

O=C(Oc1cccc(-n2cnnn2)c1)c1sc2ccccc2c1Cl
IC50 (NADPH oxidase 1): > 17 µM (not active)

N#C/C(=C/c1cn(CC(=O)O)c2ccccc12)c1ccc(F)cc1
IC50 (Leucine aminopeptidase): 21.2 µM (active)

Cc1cc(C)cc(Oc2coc3cc(OC(=O)c4cccs4)ccc3c2=O)c1
AC50 [4]: 21.2 µM (active) | EC50 (Kallikrein-7): 66.8 µM (inactive) | EC50 (Protein RecA): 18.8 µM (active) | AC50 (Cytochrome P450 2C19): 2.82 µM (inconclusive)

COc1ccc(-c2csc(N3CCSCC3)n2)cc1
EC50 [5]: 0.579 µM (active) | EC50 [6]: 0.375 µM (active) | EC50 [7]: 3.17 µM (active) | EC50 [8]: 0.887 µM (active) | EC50 [9]: 1.64 µM (active) | EC50 (H4): 0.112 µM (active)

NNC(=O)c1cnn(-c2ccccc2)c1-n1cccc1
EC50 [1]: > 79.4 µM (not active) | EC50 [2]: > 79.4 µM (not active) | EC50 [3]: > 79.4 µM (not active)

COc1ccc(OC(=O)c2sc3ccccc3c2Cl)cc1
IC50 (NADPH oxidase 1): > 17 µM (not active)

COc1ccccc1C1C=C(c2ccc(C)cc2)Nc2nnnn21 (stereo unspecified)
IC50 [10]: > 100 µM (active) | EC50 (Kallikrein-7): 23.5 µM (inactive)

COc1cccc(N2CCN(S(=O)(=O)c3ccc4[nH]c(-c5ccccc5)nc4c3)CC2)c1
IC50 [11]: > 109 µM (inactive) | IC50 [12]: > 83.3 µM (inactive) | EC50 [13]: > 120 µM (not active) | EC50 [14]: 29.8 µM (active) | EC50 [15]: > 120 µM (not active)

O=C(Nc1nc2ccc([N+](=O)[O-])cc2s1)c1ccco1
IC50 [11]: > 109 µM (inactive) | IC50 [12]: > 83.2 µM (inactive)

CCSc1n[nH]c2nc3nc4c(C)cccc4c-3nn12
IC50 [11]: > 109 µM (inactive) | IC50 [12]: > 83.3 µM (inactive)

Cc1cc(/C=C2/C(=O)N(C)C(=S)N2C)c(C)n1C1CC1
EC50 [5]: 0.343 µM (active) | EC50 [6]: 0.337 µM (active) | EC50 [1]: > 79.4 µM (not active) | EC50 [7]: < 0.1 µM (inconclusive) | EC50 [2]: > 79.4 µM (not active) | EC50 [8]: 0.297 µM (active) | EC50 [3]: > 79.4 µM (not active) | EC50 (H4): > 120 µM (not active) | CC50 [16]: 40.7 µM (active)

CCOC(=O)N1CCN(C(=O)C2CCCN(S(=O)(=O)c3ccc(C)cc3)C2)CC1 (stereo unspecified)
IC50 [10]: > 100 µM (active)

O=C(O)c1ccc(/C=N/Nc2ccc(F)cc2F)cc1
IC50 (Leucine aminopeptidase): 99.4 µM (active)

C[C@@H]1CN([C@H](C)CO)C(=O)c2cc(C#CCc3ccccc3)cnc2O[C@H]1CN(C)C(=O)C1CCC1
AC50 [17]: 1.88 µM (active) | AC50 [18]: 2.18 µM (active) | AC50 [19]: 2.1 µM (active) | AC50 [20]: 1.54 µM (active)

Cc1ccccc1-c1nc(-c2ccccc2)c(-c2ccccc2)[nH]1
IC50 (NADPH oxidase 1): > 17 µM (not active)
